According to patent US20150050299A1, “METHODS FOR ENHANCING IMMUNE RESPONSE” (priority 2010, published 2015):

How the values were obtained:
CXCR4 receptor = CXCR4 receptor (Homo sapiens, UniProt P61073); experiment: binding of radiolabeled SDF-1α to the CXCR4 receptor; details: 10 μM
Procedure: Alternative mechanisms might also be responsible for the observed immune inducing effects of PBT. The FDA-approved compound, plerixafor (also known as AMD3100), is used as a hematopoietic stem cell mobilizer for use in combination with granulocyte-colony stimulating factor (G-CSF) for peripheral blood collection and subsequent autologous transplantation in patients with non-Hodgkin's lymphoma and multiple myeloma. […] We tested the effect of 10 μM AMXT 1501 on the binding of radiolabeled SDF-1α to the CXCR4 receptor and found no inhibition. […] Since an interaction between AMXT 1501 and the CXCR4 receptor was not observed, a polyamine-dependant mechanism of immune-suppression is maintained.

human TLR8 = target: T1, human TLR8 (Homo sapiens, UniProt Q9NR97); experiment: Toll-Like Receptor (TLR) screening assay, TLR8; type: cell-based; details: 10 μM
T1 sequence (Q9NR97 27-1041): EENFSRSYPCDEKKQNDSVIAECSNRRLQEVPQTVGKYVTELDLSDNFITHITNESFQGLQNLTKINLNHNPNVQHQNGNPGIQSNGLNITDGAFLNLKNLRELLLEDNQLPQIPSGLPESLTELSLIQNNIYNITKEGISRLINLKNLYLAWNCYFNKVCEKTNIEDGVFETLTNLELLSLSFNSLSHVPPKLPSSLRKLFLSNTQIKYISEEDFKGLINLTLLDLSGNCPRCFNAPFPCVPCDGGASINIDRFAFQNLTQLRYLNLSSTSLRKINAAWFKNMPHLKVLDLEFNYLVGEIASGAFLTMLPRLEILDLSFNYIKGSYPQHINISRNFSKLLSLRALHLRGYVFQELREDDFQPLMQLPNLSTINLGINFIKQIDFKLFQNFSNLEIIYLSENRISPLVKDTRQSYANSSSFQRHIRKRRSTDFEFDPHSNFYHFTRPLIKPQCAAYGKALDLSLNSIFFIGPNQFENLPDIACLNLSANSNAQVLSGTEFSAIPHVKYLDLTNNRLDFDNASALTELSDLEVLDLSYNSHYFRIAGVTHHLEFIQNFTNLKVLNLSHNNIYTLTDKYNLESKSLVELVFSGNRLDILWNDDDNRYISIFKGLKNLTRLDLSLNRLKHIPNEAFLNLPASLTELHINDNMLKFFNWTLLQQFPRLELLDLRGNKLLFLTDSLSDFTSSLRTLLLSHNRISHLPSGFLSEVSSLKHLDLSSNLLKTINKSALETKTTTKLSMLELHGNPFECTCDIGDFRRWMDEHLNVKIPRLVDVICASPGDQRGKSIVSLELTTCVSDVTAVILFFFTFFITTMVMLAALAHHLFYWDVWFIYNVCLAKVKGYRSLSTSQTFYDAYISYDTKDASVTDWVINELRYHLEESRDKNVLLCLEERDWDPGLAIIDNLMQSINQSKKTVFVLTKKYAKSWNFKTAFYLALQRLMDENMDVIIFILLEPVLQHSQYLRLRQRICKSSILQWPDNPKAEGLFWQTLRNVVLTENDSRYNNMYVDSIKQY

[1] = test system: cultured cancer cell types (including MDA-MB-231, PC-3, A375 and SK-OV-3 among others); experiment: activity against cultured cancer cells in combination with DFMO; type: cell-based
From the text: Cancer cells can circumvent the ability of drugs such as α-difluoromethylornithine (DFMO) based on inhibition of polyamine biosynthesis, from completely depleting their internal polyamines by the importation of these molecules from external sources. […] The resulting novel two-drug combination therapy targeting cellular polyamine metabolism has shown exceptional efficacy against cutaneous squamous cell carcinomas (SCCs) in a transgenic ornithine decarboxylase (ODC) mouse model developed by us for the study of skin cancer. […] The availability of a potent polyamine transport inhibitor allows, for the first time, for a real test of the hypothesis that starving cells of polyamines will lead to objective clinical response. This therapy is molecularly-targeted, relatively nontoxic at the proposed dose, and consists of both a very well-characterized drug and a member of a novel chemical class.

human TLR9 = target: T2, human TLR9 (Homo sapiens, UniProt Q9NR96); experiment: Toll-Like Receptor (TLR) screening assay, TLR9; type: cell-based; details: 10 μM
T2 sequence (Q9NR96 26-1032): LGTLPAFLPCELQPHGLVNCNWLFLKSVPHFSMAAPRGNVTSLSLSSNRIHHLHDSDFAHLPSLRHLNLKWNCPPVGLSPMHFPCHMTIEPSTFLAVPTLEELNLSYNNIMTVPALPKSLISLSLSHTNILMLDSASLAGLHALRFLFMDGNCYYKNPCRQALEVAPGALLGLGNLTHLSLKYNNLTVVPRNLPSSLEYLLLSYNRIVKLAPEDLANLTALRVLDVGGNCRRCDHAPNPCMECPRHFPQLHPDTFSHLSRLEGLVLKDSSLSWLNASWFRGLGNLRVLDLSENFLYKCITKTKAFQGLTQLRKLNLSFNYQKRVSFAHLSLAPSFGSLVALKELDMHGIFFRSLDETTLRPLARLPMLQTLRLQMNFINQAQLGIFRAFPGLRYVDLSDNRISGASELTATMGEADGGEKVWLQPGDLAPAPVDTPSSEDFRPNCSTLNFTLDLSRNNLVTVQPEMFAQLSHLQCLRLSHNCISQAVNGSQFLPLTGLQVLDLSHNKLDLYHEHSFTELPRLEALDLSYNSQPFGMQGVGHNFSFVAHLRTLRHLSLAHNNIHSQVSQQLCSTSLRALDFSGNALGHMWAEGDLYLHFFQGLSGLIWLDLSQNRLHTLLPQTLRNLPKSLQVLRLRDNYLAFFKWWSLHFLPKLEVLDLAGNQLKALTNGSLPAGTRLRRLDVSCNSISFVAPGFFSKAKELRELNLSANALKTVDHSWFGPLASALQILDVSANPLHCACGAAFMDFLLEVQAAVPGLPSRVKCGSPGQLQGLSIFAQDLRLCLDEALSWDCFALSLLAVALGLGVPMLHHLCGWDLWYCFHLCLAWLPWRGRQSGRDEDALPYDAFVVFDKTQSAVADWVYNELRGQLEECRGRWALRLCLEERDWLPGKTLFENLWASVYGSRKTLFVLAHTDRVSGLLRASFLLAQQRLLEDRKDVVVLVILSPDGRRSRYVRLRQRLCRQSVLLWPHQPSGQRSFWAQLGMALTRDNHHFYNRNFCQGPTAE

human TLR5 = human TLR5 (Homo sapiens, UniProt O60602); experiment: Toll-Like Receptor (TLR) screening assay, TLR5; type: cell-based; details: 10 μM
Chain of human TLR5 (O60602 21-858): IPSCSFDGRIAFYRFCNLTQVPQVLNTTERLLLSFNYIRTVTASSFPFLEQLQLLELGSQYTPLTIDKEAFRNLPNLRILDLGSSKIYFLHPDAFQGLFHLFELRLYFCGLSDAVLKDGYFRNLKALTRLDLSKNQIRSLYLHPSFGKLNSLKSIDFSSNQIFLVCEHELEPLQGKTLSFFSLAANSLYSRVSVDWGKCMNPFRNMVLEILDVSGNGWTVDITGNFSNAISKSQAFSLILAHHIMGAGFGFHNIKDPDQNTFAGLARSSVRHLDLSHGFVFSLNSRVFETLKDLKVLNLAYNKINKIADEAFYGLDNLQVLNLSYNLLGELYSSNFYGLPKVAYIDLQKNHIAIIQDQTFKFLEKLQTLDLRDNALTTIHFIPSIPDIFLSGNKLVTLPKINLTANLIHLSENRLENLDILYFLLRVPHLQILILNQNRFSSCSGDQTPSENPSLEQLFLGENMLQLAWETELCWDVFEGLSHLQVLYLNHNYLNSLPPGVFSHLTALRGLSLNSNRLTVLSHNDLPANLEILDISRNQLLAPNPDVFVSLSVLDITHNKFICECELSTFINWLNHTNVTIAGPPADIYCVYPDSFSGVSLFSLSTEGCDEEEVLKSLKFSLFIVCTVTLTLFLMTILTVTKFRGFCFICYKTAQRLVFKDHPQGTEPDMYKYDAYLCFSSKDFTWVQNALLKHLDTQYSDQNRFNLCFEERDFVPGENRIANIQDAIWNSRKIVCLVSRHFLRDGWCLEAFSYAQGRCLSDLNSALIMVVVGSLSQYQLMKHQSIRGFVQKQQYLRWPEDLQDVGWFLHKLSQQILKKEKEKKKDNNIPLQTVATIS

Chain of CXCR4 receptor (P61073 whole entry): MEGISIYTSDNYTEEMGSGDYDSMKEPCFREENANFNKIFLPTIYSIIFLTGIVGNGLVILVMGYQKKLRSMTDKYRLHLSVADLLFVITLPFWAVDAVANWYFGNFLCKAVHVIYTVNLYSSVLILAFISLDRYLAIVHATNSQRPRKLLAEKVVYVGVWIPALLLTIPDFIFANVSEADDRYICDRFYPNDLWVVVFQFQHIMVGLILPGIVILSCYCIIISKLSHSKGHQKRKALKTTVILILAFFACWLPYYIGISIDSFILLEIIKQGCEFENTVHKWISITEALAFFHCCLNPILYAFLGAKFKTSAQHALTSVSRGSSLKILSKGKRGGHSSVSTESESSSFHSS

CCCCCCCCCCCCCCCC(=O)NCCCC[C@@H](N)C(=O)NCCCNCCCCNCCCN [AMXT 1501, D-Lys(C16acyl)-Spm]
inhibition of radiolabeled SDF-1α binding (CXCR4 receptor): no inhibition | activity on TLR8 (human TLR8): no significant activity | nature of cell culture effects [1]: cytostatic and not cytotoxic | potency compared with AMXT 1426 ([1]; in combination with DFMO): several orders of magnitude higher potency | activity on TLR9 (human TLR9): no significant activity | activity on TLR5 (human TLR5): no significant activity
